Source: ChEMBL document CHEMBL5058646 (2022)

Experiments:
[1] = biological target: Proto-oncogene tyrosine-protein kinase Src (Homo sapiens) (UniProt P12931); experiment: SRC SGC Tm panel (DSF); conditions: Compound concentration 20.0 uM
[2] = biological target: Serine/threonine-protein kinase Nek1 (Homo sapiens) (UniProt Q96PY6); experiment: NEK1 SGC Tm panel (DSF); conditions: Compound concentration 20.0 uM
[3] = biological target: Cyclin-dependent kinase 2 (Homo sapiens) (UniProt P24941); experiment: CDK2 SGC Tm panel (DSF); conditions: Compound concentration 20.0 uM
[4] = biological target: AP2-associated protein kinase 1 (Homo sapiens) (UniProt Q2M2I8); experiment: AAK1 SGC Tm panel (DSF); conditions: Compound concentration 20.0 uM
[5] = biological target: Adenosine receptor A2a (Homo sapiens) (UniProt P29274); experiment: GPCRScan assay: inhibition of A2A; conditions: Compound concentration 10.0 uM
[6] = biological target: 5-hydroxytryptamine receptor 2C (Homo sapiens) (UniProt P28335); conditions: Compound concentration 10.0 uM
[7] = biological target: T1, Zinc finger and BTB domain-containing protein 24 (Homo sapiens) (UniProt O43167); conditions: SUD4, Compound concentration 1.0 uM
T1 sequence (whole entry): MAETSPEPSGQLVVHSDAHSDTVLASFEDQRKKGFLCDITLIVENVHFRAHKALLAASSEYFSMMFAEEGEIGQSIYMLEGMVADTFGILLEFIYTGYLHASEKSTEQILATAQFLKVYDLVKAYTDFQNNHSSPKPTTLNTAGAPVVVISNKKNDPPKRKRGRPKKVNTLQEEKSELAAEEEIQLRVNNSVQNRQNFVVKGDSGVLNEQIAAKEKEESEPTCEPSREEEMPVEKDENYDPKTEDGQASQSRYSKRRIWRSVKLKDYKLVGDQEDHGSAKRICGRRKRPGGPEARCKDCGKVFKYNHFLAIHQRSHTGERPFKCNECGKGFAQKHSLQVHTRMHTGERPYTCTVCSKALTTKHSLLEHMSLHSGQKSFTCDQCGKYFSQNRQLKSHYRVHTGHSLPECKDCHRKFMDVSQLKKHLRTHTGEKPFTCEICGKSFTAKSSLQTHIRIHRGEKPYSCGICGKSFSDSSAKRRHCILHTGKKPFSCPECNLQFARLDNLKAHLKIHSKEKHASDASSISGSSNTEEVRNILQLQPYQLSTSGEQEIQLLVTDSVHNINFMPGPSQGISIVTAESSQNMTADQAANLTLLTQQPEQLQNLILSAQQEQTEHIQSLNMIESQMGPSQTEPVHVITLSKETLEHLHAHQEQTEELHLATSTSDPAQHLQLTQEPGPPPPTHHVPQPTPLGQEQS

[8] = biological target: T2, Zinc finger and BTB domain-containing protein 44 (Homo sapiens) (UniProt Q8NCP5); conditions: SUD4, Compound concentration 1.0 uM
T2 sequence (whole entry): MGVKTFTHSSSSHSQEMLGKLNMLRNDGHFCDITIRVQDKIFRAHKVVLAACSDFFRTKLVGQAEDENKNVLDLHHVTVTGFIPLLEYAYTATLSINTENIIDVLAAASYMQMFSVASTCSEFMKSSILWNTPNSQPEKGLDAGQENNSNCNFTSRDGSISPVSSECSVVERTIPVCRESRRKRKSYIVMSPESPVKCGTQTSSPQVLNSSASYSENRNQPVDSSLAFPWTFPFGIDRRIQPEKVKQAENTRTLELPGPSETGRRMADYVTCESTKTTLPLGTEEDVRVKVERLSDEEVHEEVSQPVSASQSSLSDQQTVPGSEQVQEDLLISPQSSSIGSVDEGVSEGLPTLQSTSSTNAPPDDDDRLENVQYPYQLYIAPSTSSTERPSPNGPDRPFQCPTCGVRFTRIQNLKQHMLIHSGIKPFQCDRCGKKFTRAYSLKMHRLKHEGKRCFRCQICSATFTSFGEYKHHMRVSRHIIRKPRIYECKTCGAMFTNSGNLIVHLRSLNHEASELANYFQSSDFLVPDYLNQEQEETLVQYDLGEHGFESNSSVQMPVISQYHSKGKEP

[9] = biological target: Serine/threonine-protein kinase Chk2 (Homo sapiens) (UniProt O96017); experiment: CHEK2 SGC Tm panel (DSF); conditions: Compound concentration 20.0 uM
[10] = biological target: Delta-type opioid receptor (Homo sapiens) (UniProt P41143); conditions: Compound concentration 10.0 uM
[11] = biological target: T1, Zinc finger and BTB domain-containing protein 24 (Homo sapiens); conditions: OCI-Ly1, Compound concentration 1.0 uM
[12] = biological target: Serine/threonine-protein kinase 10 (Homo sapiens) (UniProt O94804); experiment: STK10 SGC Tm panel (DSF); conditions: Compound concentration 20.0 uM
[13] = biological target: Death-associated protein kinase 3 (Homo sapiens) (UniProt O43293); experiment: DAPK3 SGC Tm panel (DSF); conditions: Compound concentration 20.0 uM
[14] = biological target: Ribosomal protein S6 kinase alpha-5 (Homo sapiens) (UniProt O75582); experiment: RPS6KA5 SGC Tm panel (DSF); conditions: Compound concentration 20.0 uM
[15] = biological target: Dual specificity tyrosine-phosphorylation-regulated kinase 1A (Homo sapiens) (UniProt Q13627); experiment: DYRK1A SGC Tm panel (DSF); conditions: Compound concentration 20.0 uM
[16] = biological target: STE20-like serine/threonine-protein kinase (Homo sapiens) (UniProt Q9H2G2); experiment: SLK SGC Tm panel (DSF); conditions: Compound concentration 20.0 uM
[17] = biological target: Serine/threonine-protein kinase pim-1 (Homo sapiens) (UniProt P11309); experiment: PIM1 SGC Tm panel (DSF); conditions: Compound concentration 20.0 uM
[18] = biological target: Ephrin type-A receptor 4 (Homo sapiens) (UniProt P54764); experiment: EPHA4 SGC Tm panel (DSF); conditions: Compound concentration 20.0 uM
[19] = biological target: Bromodomain-containing protein 4 (Homo sapiens) (UniProt O60885); experiment: BRD4 SGC Tm panel (DSF); conditions: Compound concentration 20.0 uM
[20] = biological target: Serine/threonine-protein kinase ULK1 (Homo sapiens) (UniProt O75385); experiment: ULK1 SGC Tm panel (DSF); conditions: Compound concentration 20.0 uM
[21] = biological target: Alpha-1B adrenergic receptor (Homo sapiens) (UniProt P35368); conditions: Compound concentration 10.0 uM
[22] = biological target: Zinc finger and BTB domain-containing protein 17 (Homo sapiens) (UniProt Q13105); conditions: SUD4, Compound concentration 1.0 uM
[23] = biological target: Dual specificity mitogen-activated protein kinase kinase 6 (Homo sapiens) (UniProt P52564); experiment: MAP2K6 SGC Tm panel (DSF); conditions: Compound concentration 20.0 uM
[24] = biological target: 5-hydroxytryptamine receptor 3A (Homo sapiens) (UniProt P46098); conditions: Compound concentration 10.0 uM
[25] = biological target: Serine/threonine-protein kinase OSR1 (Homo sapiens) (UniProt O95747); experiment: OSR1 SGC Tm panel (DSF); conditions: Compound concentration 20.0 uM
Myoneurin (Homo sapiens) = Myoneurin (Homo sapiens) (UniProt Q9NPC7); conditions: SUD4, Compound concentration 1.0 uM
Myoneurin (Homo sapiens), sequence (Q9NPC7 whole entry): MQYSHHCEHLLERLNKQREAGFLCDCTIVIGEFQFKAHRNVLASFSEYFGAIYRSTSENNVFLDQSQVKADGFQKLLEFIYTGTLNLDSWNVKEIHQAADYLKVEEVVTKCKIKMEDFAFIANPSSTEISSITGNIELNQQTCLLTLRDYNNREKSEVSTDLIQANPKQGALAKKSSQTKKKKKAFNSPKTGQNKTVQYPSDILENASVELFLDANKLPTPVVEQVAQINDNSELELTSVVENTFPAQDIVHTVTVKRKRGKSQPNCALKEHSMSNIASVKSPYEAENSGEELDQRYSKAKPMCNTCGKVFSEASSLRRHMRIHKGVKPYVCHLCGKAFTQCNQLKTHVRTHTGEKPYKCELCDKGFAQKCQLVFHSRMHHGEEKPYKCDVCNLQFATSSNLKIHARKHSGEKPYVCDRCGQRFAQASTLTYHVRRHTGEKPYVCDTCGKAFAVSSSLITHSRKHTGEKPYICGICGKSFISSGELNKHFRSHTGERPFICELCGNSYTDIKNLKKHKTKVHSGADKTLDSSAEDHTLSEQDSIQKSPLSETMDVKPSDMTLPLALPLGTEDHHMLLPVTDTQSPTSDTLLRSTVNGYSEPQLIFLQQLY

Serine/threonine-protein kinase pim-1 (Homo sapiens), sequence (P11309 whole entry, looked up): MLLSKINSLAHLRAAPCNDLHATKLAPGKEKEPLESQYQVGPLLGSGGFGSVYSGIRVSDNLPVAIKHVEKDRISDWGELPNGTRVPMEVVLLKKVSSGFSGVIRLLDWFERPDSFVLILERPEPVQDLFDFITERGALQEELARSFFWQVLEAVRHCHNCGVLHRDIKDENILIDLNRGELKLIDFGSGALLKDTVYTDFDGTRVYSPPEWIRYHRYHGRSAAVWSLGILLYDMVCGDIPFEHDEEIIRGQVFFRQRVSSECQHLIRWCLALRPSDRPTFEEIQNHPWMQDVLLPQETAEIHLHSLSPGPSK
Dual specificity mitogen-activated protein kinase kinase 6 (Homo sapiens), sequence (P52564 whole entry): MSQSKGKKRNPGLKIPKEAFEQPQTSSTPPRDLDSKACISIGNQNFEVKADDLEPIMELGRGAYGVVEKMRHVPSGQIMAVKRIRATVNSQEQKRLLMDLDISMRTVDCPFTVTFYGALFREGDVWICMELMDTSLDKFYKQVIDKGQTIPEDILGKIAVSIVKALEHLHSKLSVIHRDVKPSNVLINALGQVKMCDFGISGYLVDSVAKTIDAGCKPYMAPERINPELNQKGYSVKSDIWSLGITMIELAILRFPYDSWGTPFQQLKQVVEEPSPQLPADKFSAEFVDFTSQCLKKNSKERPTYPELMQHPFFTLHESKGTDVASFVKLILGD
Serine/threonine-protein kinase 10 (Homo sapiens), sequence (O94804 whole entry, looked up): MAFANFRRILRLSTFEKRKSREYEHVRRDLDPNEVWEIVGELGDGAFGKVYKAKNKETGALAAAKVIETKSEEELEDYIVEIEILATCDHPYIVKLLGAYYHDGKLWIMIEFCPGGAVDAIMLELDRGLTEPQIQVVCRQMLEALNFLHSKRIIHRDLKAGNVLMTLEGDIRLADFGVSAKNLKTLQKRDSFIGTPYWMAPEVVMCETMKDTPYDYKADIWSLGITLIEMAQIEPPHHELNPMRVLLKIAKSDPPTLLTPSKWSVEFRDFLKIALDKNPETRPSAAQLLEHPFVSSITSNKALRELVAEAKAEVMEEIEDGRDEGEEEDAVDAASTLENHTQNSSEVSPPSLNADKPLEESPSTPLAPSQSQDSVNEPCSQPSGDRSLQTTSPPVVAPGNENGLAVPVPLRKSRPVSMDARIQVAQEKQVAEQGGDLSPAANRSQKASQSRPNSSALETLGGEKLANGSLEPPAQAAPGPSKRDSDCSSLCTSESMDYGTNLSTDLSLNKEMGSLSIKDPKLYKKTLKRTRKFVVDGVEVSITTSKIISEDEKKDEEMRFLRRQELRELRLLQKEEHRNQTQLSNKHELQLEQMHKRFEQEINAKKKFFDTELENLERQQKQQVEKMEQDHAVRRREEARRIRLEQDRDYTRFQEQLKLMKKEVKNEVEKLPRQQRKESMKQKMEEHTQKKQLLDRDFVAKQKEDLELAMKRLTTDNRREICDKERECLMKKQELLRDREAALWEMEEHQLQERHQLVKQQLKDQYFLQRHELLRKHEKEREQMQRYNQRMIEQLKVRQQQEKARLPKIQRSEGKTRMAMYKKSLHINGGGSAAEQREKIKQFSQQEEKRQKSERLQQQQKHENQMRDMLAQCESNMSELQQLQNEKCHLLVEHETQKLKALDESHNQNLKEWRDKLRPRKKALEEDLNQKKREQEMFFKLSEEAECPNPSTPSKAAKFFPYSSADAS
Serine/threonine-protein kinase OSR1 (Homo sapiens), sequence (O95747 2-527 limits assumed): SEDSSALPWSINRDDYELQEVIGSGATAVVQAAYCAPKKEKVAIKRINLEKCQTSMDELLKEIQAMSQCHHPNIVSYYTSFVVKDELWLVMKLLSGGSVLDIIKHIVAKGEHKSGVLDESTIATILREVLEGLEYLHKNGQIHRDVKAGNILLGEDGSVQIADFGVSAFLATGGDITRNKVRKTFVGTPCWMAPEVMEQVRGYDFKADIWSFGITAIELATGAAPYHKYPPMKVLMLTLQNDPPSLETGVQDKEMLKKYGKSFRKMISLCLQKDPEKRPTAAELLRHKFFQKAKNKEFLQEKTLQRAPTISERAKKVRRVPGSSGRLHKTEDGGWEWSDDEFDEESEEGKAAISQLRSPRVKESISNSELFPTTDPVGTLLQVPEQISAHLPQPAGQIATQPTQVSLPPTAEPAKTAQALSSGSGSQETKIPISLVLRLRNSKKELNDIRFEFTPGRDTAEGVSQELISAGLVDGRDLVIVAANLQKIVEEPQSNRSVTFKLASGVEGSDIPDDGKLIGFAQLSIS
Delta-type opioid receptor (Homo sapiens), sequence (P41143 whole entry, the tested form may be a part): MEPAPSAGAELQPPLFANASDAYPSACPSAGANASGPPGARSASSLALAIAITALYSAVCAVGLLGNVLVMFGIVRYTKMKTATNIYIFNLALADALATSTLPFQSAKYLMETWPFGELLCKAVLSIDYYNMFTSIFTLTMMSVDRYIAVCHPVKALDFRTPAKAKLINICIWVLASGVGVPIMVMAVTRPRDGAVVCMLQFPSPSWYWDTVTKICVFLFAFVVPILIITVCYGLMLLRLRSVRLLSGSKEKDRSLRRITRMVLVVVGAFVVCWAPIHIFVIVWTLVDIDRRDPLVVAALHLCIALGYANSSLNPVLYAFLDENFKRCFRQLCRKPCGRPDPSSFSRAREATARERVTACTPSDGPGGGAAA
Ephrin type-A receptor 4 (Homo sapiens), sequence (P54764 whole entry): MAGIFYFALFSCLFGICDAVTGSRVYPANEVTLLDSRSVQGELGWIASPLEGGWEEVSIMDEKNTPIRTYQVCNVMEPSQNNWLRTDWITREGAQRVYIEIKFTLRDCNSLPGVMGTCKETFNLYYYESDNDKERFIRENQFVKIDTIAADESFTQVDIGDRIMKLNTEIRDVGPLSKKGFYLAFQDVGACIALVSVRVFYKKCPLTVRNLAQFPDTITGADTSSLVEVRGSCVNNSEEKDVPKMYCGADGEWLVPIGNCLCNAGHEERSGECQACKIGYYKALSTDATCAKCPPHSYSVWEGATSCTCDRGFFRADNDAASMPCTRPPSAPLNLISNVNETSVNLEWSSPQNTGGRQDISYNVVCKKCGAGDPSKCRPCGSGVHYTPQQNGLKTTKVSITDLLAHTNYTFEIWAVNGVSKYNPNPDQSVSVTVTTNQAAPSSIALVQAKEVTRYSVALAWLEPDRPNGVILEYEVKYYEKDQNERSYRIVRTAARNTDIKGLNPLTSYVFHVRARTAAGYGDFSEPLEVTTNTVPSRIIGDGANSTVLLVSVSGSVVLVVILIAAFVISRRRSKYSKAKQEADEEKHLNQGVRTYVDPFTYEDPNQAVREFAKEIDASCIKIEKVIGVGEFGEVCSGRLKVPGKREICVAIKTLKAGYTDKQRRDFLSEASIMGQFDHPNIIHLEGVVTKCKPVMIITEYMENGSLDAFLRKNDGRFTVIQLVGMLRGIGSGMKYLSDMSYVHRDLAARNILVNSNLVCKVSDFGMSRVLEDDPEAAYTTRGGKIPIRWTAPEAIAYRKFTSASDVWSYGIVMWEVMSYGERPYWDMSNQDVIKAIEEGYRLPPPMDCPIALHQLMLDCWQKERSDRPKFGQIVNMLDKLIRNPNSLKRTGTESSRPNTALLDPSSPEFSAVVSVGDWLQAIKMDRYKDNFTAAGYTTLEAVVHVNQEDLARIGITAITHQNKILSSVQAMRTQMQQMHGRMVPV
Proto-oncogene tyrosine-protein kinase Src (Homo sapiens), sequence (P12931 2-536 limits assumed): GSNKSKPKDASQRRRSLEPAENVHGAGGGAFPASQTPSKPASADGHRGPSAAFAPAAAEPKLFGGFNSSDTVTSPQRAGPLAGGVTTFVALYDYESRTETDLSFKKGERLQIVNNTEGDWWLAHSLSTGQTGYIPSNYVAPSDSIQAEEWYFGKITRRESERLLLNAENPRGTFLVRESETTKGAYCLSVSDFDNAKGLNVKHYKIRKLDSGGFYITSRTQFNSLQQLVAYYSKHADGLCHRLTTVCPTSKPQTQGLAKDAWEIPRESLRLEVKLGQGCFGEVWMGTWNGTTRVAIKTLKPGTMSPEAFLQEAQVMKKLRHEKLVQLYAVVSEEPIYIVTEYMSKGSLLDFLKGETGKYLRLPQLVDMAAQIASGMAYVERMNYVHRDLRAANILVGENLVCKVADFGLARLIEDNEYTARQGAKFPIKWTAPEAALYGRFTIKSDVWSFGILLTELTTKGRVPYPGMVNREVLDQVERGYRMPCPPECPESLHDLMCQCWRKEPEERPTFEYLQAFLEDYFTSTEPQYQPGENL

Tm [1]: 53 °C | Tm [2]: 47 °C | Tm [3]: 46 °C | Tm [4]: 47 °C | inhibition [5]: -3.49% | inhibition [6]: 16.1% | LogFC [7]: 0.0258 | LogFC [8]: -0.00843 | Tm [9]: 44 °C | inhibition [10]: 18.1% | LogFC [11]: -0.111 | Tm [12]: 42 °C | Tm [14]: 37 °C | Tm [15]: 45 °C | Tm [16]: 42 °C | Tm [17]: 41 °C | Tm [18]: 54 °C | Tm [19]: 44 °C | Tm [20]: 41 °C | inhibition [21]: 12.4% | LogFC [22]: -0.0472 | Tm [23]: 45 °C | inhibition [24]: -5.81% | Tm [25]: 39 °C | LogFC (Myoneurin (Homo sapiens)): -0.135
Structure (SMILES): C[C@@H]1CN(c2ncc(Cl)c(Nc3ccc4c(c3)n(CCC(C)(C)O)c(=O)n4C)n2)C[C@H](C)C1(F)F
Tm [13]: 39 °C
